According to PMC7470127, “Design, synthesis, and evaluation of 1, 4-benzodioxan-substituted chalcones as selective and reversible inhibitors of human monoamine oxidase B” (Journal of Enzyme Inhibition and Medicinal Chemistry, 2020):

Experiments:
[1] = biological target: T1, hMAO-B (Homo sapiens, UniProt P27338); test: hMAO inhibition assay (Amplex Red fluorescence), hMAO-B, benzylamine substrate; format: biochemical; details: for inhibition at 1 µM: tested concentration 1 µM; for Selectivity Index (SI): SI = IC50 (hMAO-A)/IC50 (hMAO-B); for IC50: recombinant hMAO-B, read-out: hMAO-B IC50; for fold higher inhibitory potency than 4: from IC50, versus compound 4
T1 sequence (P27338 1-520): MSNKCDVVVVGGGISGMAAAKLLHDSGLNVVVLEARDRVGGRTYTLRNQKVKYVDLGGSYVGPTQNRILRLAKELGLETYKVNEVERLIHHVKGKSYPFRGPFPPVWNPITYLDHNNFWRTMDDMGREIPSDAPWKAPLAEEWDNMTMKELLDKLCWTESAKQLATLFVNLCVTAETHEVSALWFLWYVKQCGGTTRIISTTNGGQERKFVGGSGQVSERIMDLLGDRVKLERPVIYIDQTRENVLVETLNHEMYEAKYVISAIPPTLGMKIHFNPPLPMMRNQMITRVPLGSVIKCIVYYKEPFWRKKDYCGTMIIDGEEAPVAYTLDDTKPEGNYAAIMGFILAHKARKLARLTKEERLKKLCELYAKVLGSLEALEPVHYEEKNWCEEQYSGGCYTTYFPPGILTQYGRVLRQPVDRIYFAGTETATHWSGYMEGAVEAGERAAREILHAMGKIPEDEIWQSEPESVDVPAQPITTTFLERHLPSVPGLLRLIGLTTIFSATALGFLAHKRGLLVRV
Procedure: The hMAO inhibition assay was performed as previously described. […] The test compounds were dissolved in DMSO as stock solutions (10 mM) and diluted with sodium phosphate buffer (50 mM, pH 7.4) to the corresponding concentrations. […] The specific fluorescence emission was calculated after subtraction of the background activity. The background activity was determined from wells containing all components except the hMAO isoforms, which were replaced by a sodium phosphate buffer solution. The percentage inhibition was calculated by the following expression: (1 – IFi/IFc) × 100, in which IFi and IFc are the fluorescence intensities obtained for hMAO in the presence and absence of inhibitors after subtracting the respective background.

[2] = biological target: T2, hMAO-A (Homo sapiens, UniProt P21397); test: hMAO inhibition assay (Amplex Red fluorescence), hMAO-A, p-tyramine substrate; format: biochemical; details: for IC50: recombinant hMAO-A
T2 sequence (P21397 1-527): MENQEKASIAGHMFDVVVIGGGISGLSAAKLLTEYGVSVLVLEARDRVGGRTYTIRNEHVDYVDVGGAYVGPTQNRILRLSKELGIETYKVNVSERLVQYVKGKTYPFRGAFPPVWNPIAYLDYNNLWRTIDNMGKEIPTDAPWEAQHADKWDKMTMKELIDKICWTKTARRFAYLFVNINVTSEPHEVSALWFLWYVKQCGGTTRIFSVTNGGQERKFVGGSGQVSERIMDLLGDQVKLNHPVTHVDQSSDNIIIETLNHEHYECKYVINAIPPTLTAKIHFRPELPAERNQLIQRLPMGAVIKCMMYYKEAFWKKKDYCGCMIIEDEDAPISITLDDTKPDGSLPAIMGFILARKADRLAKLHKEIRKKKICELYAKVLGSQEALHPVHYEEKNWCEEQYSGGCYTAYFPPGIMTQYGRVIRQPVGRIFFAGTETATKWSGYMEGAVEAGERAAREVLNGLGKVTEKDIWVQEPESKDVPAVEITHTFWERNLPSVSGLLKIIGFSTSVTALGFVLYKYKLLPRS
Procedure: The hMAO inhibition assay was performed as previously described. Adequate amounts of recombinant hMAO-A/B were acquired and adjusted to 12.5 µg/mL or 75 µg/mL for hMAO-A or hMAO-B, respectively, with sodium phosphate buffer (50 mM, pH 7.4). The test compounds were dissolved in DMSO as stock solutions (10 mM) and diluted with sodium phosphate buffer (50 mM, pH 7.4) to the corresponding concentrations. Then the test compounds (20 µL) and hMAO (80 µL) were incubated for 15 min at 37 °C in a flat, black-bottomed 96-well microtest plate in the dark. The reaction was initiated by adding Amplex Red reagent (200 µM, final concentration), horseradish peroxidase (2 U/mL, final concentration), and 2 mM p-tyramine for hMAO-A or 2 mM benzylamine (final concetration) for hMAO-B and incubated at 37 °C for 20 min. Activity was quantified in a multi detection microplate fluorescence reader (SpectraMax M5, Molecular Devices, USA) based on the fluorescence generated (excitation, 545 nm; emission, 590 nm). The specific fluorescence emission was calculated after subtraction of the background activity. The background activity was determined from wells containing all components except the hMAO isoforms, which were replaced by a sodium phosphate buffer solution. The percentage inhibition was calculated by the following expression: (1 – IFi/IFc) × 100, in which IFi and IFc are the fluorescence intensities obtained for hMAO in the presence and absence of inhibitors after subtracting the respective background. […]

| inhibition at 1 µM [1] [%] | IC50 [2] [µM] | melting point [°C] | Selectivity Index (SI) [1] | IC50 [1] [µM] | fold higher hMAO-B inhibition than 1 ([1]; from IC50, versus compound 1) [fold] | fold higher inhibitory potency than 4 [1] | SMILES | inhibition at 0.1 µM ([2]; read-out: hMAO-A % inhibition) [%] |
| --- | --- | --- | --- | --- | --- | --- | --- | --- |
| 51.7 | > 40 | 93.8 to 94.9 | – | – | – | – | COc1ccc(C(=O)/C=C/c2ccc3c(c2)OCCO3)cc1 [Compound 8, (E)-3–(2,3-dihydrobenzo[b][1,4]dioxin-6-yl)-1-(4-methoxyphenyl)prop-2-en-1-one] | – |
| 68.1 | > 40 | 136.7 to 138.2 | – | – | – | – | O=C(/C=C/c1ccc2c(c1)OCCO2)c1ccc(Br)cc1 [Compound 19, (E)-1–(4-bromophenyl)-3–(2,3-dihydrobenzo[b][1,4]dioxin-6-yl)prop-2-en-1-one] | – |
| 78 | > 40 | 94.4 to 95.6 | >118 | 0.34 ± 0.01 | – | – | COc1cccc(C(=O)/C=C/c2ccc3c(c2)OCCO3)c1 [Compound 6, (E)-3-(2,3-dihydrobenzo[b][1,4]dioxin-6-yl)-1–(3-methoxyphenyl)prop-2-en-1-one] | – |
| 50.8 | > 40 | – | – | – | – | – | O=C(/C=C/c1ccc2c(c1)OCO2)c1ccccc1 [Compound 3, (E)-3-(benzo[d][1,3]dioxol-5-yl)-1-phenylprop-2-en-1-one] | – |
| 57.5 | > 40 | – | – | – | – | – | O=C(/C=C/c1ccc2c(c1)OCO2)c1ccc(Cl)cc1 [Compound 28, (E)-3-(benzo[d][1,3]dioxol-5-yl)-1-(4-chlorophenyl)prop-2-en-1-one] | – |
| 88.8 | > 40 | 156.6 to 157.9 | >235 | 0.17 ± 0.02 | – | – | O=C(/C=C/c1ccc2c(c1)OCCO2)c1ccc(Cl)c(Cl)c1 [Compound 23, (E)-1-(3,4-dichlorophenyl)-3–(2,3-dihydrobenzo[b][1,4]dioxin-6-yl)prop-2-en-1-one] | – |
| 76.8 | > 40 | 139 to 140.2 | >174 | 0.23 ± 0.0005 | – | – | O=C(/C=C/c1ccc2c(c1)OCCO2)c1ccc(C(F)(F)F)cc1 [Compound 21, (E)-3-(2,3-dihydrobenzo[b][1,4]dioxin-6-yl)-1-(4-(trifluoromethyl)phenyl)prop-2-en-1-one] | – |
| 78.4 | > 40 | 136.2 to 137.3 | >125 | 0.32 ± 0.05 | – | – | O=C(/C=C/c1ccc2c(c1)OCCO2)c1cc(Cl)ccc1O [Compound 25, (E)-1-(5-chloro-2-hydroxyphenyl)-3-(2,3-dihydrobenzo[b][1,4]dioxin-6-yl)prop-2-en-1-one] | – |
| – | – | – | – | – | – | – | C#CCN(C)CCCOc1ccc(Cl)cc1Cl [clorgyline, reference compound] | 86.6 |
| 77.1 | > 40 | 141.8 to 143.7 | >160 | 0.25 ± 0.03 | – | – | O=C(/C=C/c1ccc2c(c1)OCCO2)c1cc(Br)ccc1O [Compound 24, (E)-1-(5-bromo-2-hydroxyphenyl)-3-(2,3-dihydrobenzo[b][1,4]dioxin-6-yl)prop-2-en-1-one] | – |
| – | > 40 | – | – | 13.04 ± 0.06 | – | – | O=C(C=Cc1ccccc1)c1ccccc1 [Compound 1, 1,3-diphenyl-2-propen-1-one] | – |
| 86.3 | > 40 | 196.8 to 198.5 | >267 | 0.15 ± 0.007 | – | – | O=C(/C=C/c1ccc2c(c1)OCCO2)c1cccc(O)c1 [Compound 9, (E)-3–(2,3-dihydrobenzo[b][1,4]dioxin-6-yl)-1-(3-hydroxyphenyl)prop-2-en-1-one] | – |
| 80.4 | > 40 | 111.8 to 112.6 | >143 | 0.28 ± 0.002 | – | – | O=C(/C=C/c1ccc2c(c1)OCO2)c1cccc(Br)c1 [Compound 27, (E)-3-(benzo[d][1,3]dioxol-5-yl)-1–(3-bromophenyl)prop-2-en-1-one] | – |
| 22.4 | > 40 | 110 to 111.1 | – | – | – | – | COc1ccc(C(=O)/C=C/c2ccc3c(c2)OCCO3)cc1OC [Compound 11, (E)-3–(2,3-dihydrobenzo[b][1,4]dioxin-6-yl)-1–(3,4-dimethoxyphenyl)prop-2-en-1-one] | – |
| 75 | > 40 | 120.8 to 122.3 | >133 | 0.3 ± 0.02 | – | – | O=C(/C=C/c1ccc2c(c1)OCCO2)c1ccccc1O [Compound 5, (E)-3-(2,3-dihydrobenzo[b][1,4]dioxin-6-yl)-1-(2-hydroxyphenyl)prop-2-en-1-one] | – |
| 69.5 | > 40 | 169.5 to 170.8 | – | – | – | – | O=C(/C=C/c1ccc2c(c1)OCCO2)c1ccc(O)cc1O [Compound 10, (E)-3-(2,3-dihydrobenzo[b][1,4]dioxin-6-yl)-1–(2,4-dihydroxyphenyl)prop-2-en-1-one] | – |
| 84.9 | > 40 | – | >186 | – | 55 | – | O=C(/C=C/c1ccc2c(c1)OCCO2)c1ccccc1 [Compound 4, (E)-3-(2,3-dihydrobenzo[b][1,4]dioxin-6-yl)-1-phenylprop-2-en-1-one] | – |
| 69.9 | > 40 | – | – | – | – | – | O=C(/C=C/c1ccc2c(c1)OCCO2)c1ccc(Cl)cc1 [Compound 18, (E)-1–(4-chlorophenyl)-3–(2,3-dihydrobenzo[b][1,4]dioxin-6-yl)prop-2-en-1-one] | – |
| 92.4 | > 40 | 67.5 to 69.4 | >741 | 0.054 ± 0.006 | – | 1.8–4.1 fold | O=C(/C=C/c1ccc2c(c1)OCCO2)c1ccccc1Cl [Compound 13, (E)-1-(2-chlorophenyl)-3-(2,3-dihydrobenzo[b][1,4]dioxin-6-yl)prop-2-en-1-one] | – |
| 89.2 | > 40 | – | >308 | 0.13 ± 0.007 | – | 1.7–4 fold | O=C(/C=C/c1ccc2c(c1)OCCO2)c1cccc(F)c1 [Compound 15, (E)-3-(2,3-dihydrobenzo[b][1,4]dioxin-6-yl)-1-(3-fluorophenyl)prop-2-en-1-one] | – |
| 87.5 | > 40 | 135.5 to 136.5 | >588 | 0.068 ± 0.007 | – | – | O=C(/C=C/c1ccc2c(c1)OCCO2)c1ccc(F)cc1 [Compound 20, (E)-3-(2,3-dihydrobenzo[b][1,4]dioxin-6-yl)-1-(4-fluorophenyl)prop-2-en-1-one] | – |
| 18.1 | > 40 | – | – | – | – | – | O=C(/C=C/c1ccc2ccccc2c1)c1ccccc1 [Compound 2, (E)-3-(naphthalen-2-yl)-1-phenylprop-2-en-1-one] | – |
| 26 | > 40 | – | – | – | – | – | O=C(/C=C/c1ccc2c(c1)OCCO2)c1ccc(O)cc1 [Compound 7, (E)-3–(2,3-dihydrobenzo[b][1,4]dioxin-6-yl)-1-(4-hydroxyphenyl)prop-2-en-1-one] | – |
